Reference: US6444670B2 (Wyeth, priority 1998, dated 2002)
pIC50: −log10 of the molar value.

Experiments:
[1] = molecular target: T1, Human recombinant PTP1B (hPTP1B) (Homo sapiens, UniProt P18031); type: biochemical
T1 construct: made in house
T1 sequence (P18031 1-435): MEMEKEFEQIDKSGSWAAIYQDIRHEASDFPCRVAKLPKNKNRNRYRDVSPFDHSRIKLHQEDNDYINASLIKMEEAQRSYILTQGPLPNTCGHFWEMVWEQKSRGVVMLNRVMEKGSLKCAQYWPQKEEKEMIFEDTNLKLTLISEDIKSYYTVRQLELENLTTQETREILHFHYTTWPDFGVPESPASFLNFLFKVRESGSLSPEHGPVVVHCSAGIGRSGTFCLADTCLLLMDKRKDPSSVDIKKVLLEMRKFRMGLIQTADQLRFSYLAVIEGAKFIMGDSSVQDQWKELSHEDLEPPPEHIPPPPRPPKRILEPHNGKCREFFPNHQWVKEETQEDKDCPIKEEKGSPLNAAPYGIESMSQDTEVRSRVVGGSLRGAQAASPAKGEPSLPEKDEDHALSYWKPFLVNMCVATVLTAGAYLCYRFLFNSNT

[2] = test system: diabetic (ob/ob) mice; test: Blood glucose lowering in diabetic (ob/ob) mice; type: in vivo, mouse; conditions: plasma glucose, dose 25 mg/Kg, (a) = no significant activity (p < 0.05) at this dose
Source text: The procedures used and results obtained are briefly described below.
The non-insulin dependent diabetic (NIDDM) syndrome can be typically characterizes by obesity, hyperglycemia, abnormal insulin secretion, hyperinsulinemia and insulin resistance.
In each test procedure, mice [Male or female ob/ob (C57 B1/6J) and their lean litermates (ob/+ or +/+, Jackson Laboratories) ages 2 to 5 months (10 to 65 g)] of a similar age were randomized according to body weight into 4 groups of 10 mice. The mice were housed 5 per cage and are maintained on normal rodent chow with water ad libitum. Mice received test compound daily by gavage (suspended in 0.5 ml of 0.5% methyl cellulose); dissolved in the drinking water; or admixed in the diet. The dose of compounds given ranges from 2.5 to 200 mg/kg body weight/day. The dose is calculated based on the fed weekly body weight and is expressed as active moiety. […] Control mice received vehicle only.
On the morning of Day 4, 7 or 14 two drops of blood (approximetly 50 ul) were collected into sodium fluoride containing tubes either from the tail vein or after decapitation. For those studies in which the compound was administered daily by gavage the blood samples were collected 0 and 4 hours after compound administration. The plasma was isolated by centrifugation and the concentration of glucose is measured enzymatically on an Abbott V. P. Analyzer.
For each mouse, the percentage change in plasma glucose on Day 4, 7 or 14 is calculated relative to the mean plasma glucose of the vehicle treated mice. Analysis of variance followed by Dunett's Comparison Test (one-tailed) are used to estimate the significant difference between the plasma glucose values from the control group and the individual compound treated groups (CMS SAS Release 5.18).

[3] = test system: rat hepatic microsomal PTPases; conditions: 50 μM compound

pIC50 [1] | % Change from Control [3] | melting point | SMILES | % Change Glucose from Vehicle [2]
7.08 | −44.69% | 167 to 168.5 °C | Cc1sc2c(Br)c3ccccc3c(-c3cc(Br)c(O[C@H](Cc4ccccc4)C(=O)O)c(C4CCCC4)c3)c2c1C [Example 48] | −20.1 ^ %
6.69 | −81.83% | 228 to 231 °C | Cc1sc2c(Br)c3ccccc3c(-c3cc(C(C)C)c(OCC(=O)O)c(C(C)C)c3)c2c1C [Example 53, [4-(9-Bromo-2,3-dimethyl-naphtho[2,3-b]thiophen-4-yl)-2,6-diisopropyl-phenoxy]-acetic acid] | –
6.42 | −63.12% | 129 to 130 °C | Cc1sc2c(Br)c3ccccc3c(-c3cc(Br)c(O)c([N+](=O)[O-])c3)c2c1C [Example 21, 2-Bromo-4-(9-bromo-2,3-dimethyl-naphtho[2,3-b]thiophen-4-yl)-6-nitro-phenol] | –
7.31 | −63.42% | 176 to 177 °C | Cc1sc2c(Br)c3ccccc3c(-c3cc(Br)c(O[C@@H](CCc4ccccc4)C(=O)O)c(Br)c3)c2c1C [Example 31, (S)-2-[2,6-Dibromo-4-(9-bromo-2,3-dimethyl-naphtho[2,3-b]thiophen-4-yl)-phenoxy]-4-phenyl-butyric acid] | –
6.16 | −30.40% | 237 to 240 °C | Cc1c(CN2CCOCC2)sc2c(Br)c3ccccc3c(-c3cc(Br)c(O)c(Br)c3)c12 [Example 19, 2,6-Dibromo-4-(9-bromo-3-methyl-2-morpholin-4-ylmethyl-naphtho[2,3-b]thiophen-4-yl)-phenol] | –
6.27 | −49.80% | 172 to 174 °C | Cc1sc2c(Br)c3ccccc3c(-c3cc(Br)c(O)c(Br)c3)c2c1C [Example 9, 2,6-Dibromo-4-(9-bromo-2,3-dimethyl-naphtho[2,3-b]thiophen-4-yl)-phenol] | –
– | −28.57% | 173 to 175 °C | Cc1sc2c(Br)c3ccccc3c(-c3ccc(O)c(N)c3)c2c1C [Example 22, 2-Amino-4-(9-bromo-2,3-dimethyl-naphtho[2,3-b]thiophen-4-yl)-phenol] | –
6.06 | −60.32% | 224 to 225 °C | Cc1sc2c(Br)c3ccccc3c(-c3cc(Br)c(O[C@H](C)C(=O)O)c(Br)c3)c2c1C [Example 30, (R)-2-[2,6-Dibromo-4-(9-bromo-2,3-dimethylnaptho[2,3-b]thien-4-yl)-phenoxy]-propanoic acid] | –
